Data as given in patent publication US8580965B2, “Substituted sulfonamide compounds” (Gruenenthal GmbH, priority 2006, dated 2013).
Structures can show the parent of a compound that is named as a salt.

Assays:
[1] = target: T1, human B1R receptor (bradykinin 1 receptor) (Homo sapiens, UniProt P46663); assay: FLIPR Ca2+ assay (Fluo-4) on CHO K1 cells stably transfected with the human B1R gene; % activation and % inhibition at 10 μM; type: cell-based; conditions: CHO K1 hB1R cells, Ca2+ inflow after 0.5 nM Lys-Des-Arg9-bradykinin; for inhibition at 10 µM: CHO-K1, test substance 10 μM, read-out: B1R antagonism, human [10 μM] % inhibition; for B1R antagonism, human [10 μM] % inhibition: test substance 10 μM
T1 construct: host or cells: CHO K1 cells (hB1R cells)
T1 sequence (P46663 1-353): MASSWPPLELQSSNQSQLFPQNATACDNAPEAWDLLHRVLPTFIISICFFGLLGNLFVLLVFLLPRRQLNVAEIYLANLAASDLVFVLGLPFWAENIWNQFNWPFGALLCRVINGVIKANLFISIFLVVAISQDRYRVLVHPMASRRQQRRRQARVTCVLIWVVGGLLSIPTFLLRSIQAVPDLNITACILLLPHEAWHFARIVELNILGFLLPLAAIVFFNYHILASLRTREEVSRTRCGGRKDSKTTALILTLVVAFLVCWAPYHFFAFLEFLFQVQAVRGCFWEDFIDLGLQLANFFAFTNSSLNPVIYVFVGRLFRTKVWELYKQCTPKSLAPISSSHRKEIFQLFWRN
Method in brief: (§1)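 Fluo-4 Ca2+ flux on FLIPR in stable hB1R or rB1R CHO K1 lines, two additions. Agonism: 10 µM compound versus 0.5 nM Lys-Des-Arg9-BK (human) or 100 nM Des-Arg9-BK (rat); antagonism: same agonists applied 10 min later, suppression expressed against maximum achievable inhibition.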

[2] = target: T2, B1R receptor of the rat (bradykinin 1 receptor) (Rattus norvegicus, UniProt P97583); assay: FLIPR Ca2+ assay (Fluo-4) on CHO K1 cells stably transfected with the B1R gene of the rat; % activation and % inhibition at 10 μM; type: cell-based; conditions: CHO K1 rB1R cells, Ca2+ inflow after 100 nM Des-Arg9-bradykinin; for inhibition at 10 µM: CHO-K1, test substance 10 μM, read-out: B1R antagonism, rat [10 μM] % inhibition; for B1R antagonism, rat [10 μM] % inhibition: test substance 10 μM
T2 construct: host or cells: CHO K1 cells (rB1R cells)
T2 sequence (P97583 1-337): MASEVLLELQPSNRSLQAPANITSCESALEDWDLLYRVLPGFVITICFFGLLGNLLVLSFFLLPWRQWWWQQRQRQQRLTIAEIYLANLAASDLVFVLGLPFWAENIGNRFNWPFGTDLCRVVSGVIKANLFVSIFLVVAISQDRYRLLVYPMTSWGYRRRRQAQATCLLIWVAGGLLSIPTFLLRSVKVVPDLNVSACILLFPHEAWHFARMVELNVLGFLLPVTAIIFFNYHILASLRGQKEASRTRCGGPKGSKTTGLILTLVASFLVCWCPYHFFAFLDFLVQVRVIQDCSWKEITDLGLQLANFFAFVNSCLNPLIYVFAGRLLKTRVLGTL
Method in brief: as §1

| SMILES | inhibition at 10 µM [1] | inhibition at 10 µM [2] | other results |
| --- | --- | --- | --- |
| O=C(COCC1Cc2ccccc2CN1S(=O)(=O)c1ccccc1)N1CCC(O)(Cc2ccccc2)CC1 (stereo not drawn) [Example 77, 2-(2-phenylsulfonyl-1,2,3,4-tetrahydro-isoquinolin-3-ylmethoxy)-1-(4-benzyl-4-hydroxy-piperidin-1-yl)-ethanone] | 13.3% | -0.12% | – |
| O=C(COCC1Cc2ccccc2CN1S(=O)(=O)c1ccc(Cl)cc1Cl)N1CCC(O)(c2ccc(Cl)cc2)CC1 (stereo not drawn) [Example 79, 1-(4-(4-chlorophenyl)-4-hydroxypiperidin-1-yl)-2-((2-(2,4-dichlorophenylsulfonyl)-1,2,3,4-tetrahydroisoquinolin-3-yl)methoxy)ethanone] | 47.3% | 70.7% | – |
| O=C(COCC1Cc2ccccc2CN1S(=O)(=O)c1ccc(Cl)cc1Cl)N1CCC(O)(Cc2ccccc2)CC1 (stereo not drawn) [Example 81, 1-(4-benzyl-4-hydroxy-piperidin-1-yl)-2-[2-(2,4-dichloro-phenylsulfonyl)-1,2,3,4-tetrahydro-isoquinolin-3-ylmethoxy]-ethanone] | 32.9% | 62.8% | – |
| O=C(COC1CCCCC1N(Cc1ccccc1)S(=O)(=O)c1ccc(Cl)c(Cl)c1)N1CCC(O)(c2ccc(Cl)cc2)CC1 (stereo not drawn) [Example 83, N-benzyl-3,4-dichloro-N-(2-(2-(4-(4-chlorophenyl)-4-hydroxypiperidin-1-yl)-2-oxoethoxy)cyclohexyl)phenylsulfonamide] | 11.3% | -12.6% | – |
| O=C(COC1CCCCC1N(Cc1ccccc1)S(=O)(=O)c1ccc(Cl)c(Cl)c1)N1CCC(O)(Cc2ccccc2)CC1 (stereo not drawn) [Example 84, N-benzyl-N-{2-[2-(4-benzyl-4-hydroxy-piperidin-1-yl)-2-oxo-ethoxy]-cyclohexyl}-3,4-dichloro-phenylsulfonamide] | -0.61% | -9.47% | – |
| COc1cc(C)c(S(=O)(=O)N2CCCCC2COCC(=O)N2CCC(O)(c3cccs3)CC2)c(C)c1 (stereo not drawn) [Example 85, 1-(4-hydroxy-4-thiophen-2-yl-piperidin-1-yl)-2-[1-(4-methoxy-2,6-dimethyl-phenylsulfonyl)-piperidin-2-ylmethoxy]-ethanone] | 106% | 101% | – |
| COc1cc(C)c(S(=O)(=O)N(C)CCOCC(=O)N2CCC(O)(c3cccs3)CC2)c(C)c1 [Example 86, N-{2-[2-(4-hydroxy-4-thiophen-2-yl-piperidin-1-yl)-2-oxo-ethoxy]-ethyl}-4-methoxy-2,6,N-trimethyl-phenylsulfonamide] | 106% | 102% | – |
| COc1cc(C)c(S(=O)(=O)N(C)CCOCC(=O)N2CCC(O)(c3ccncc3)CC2)c(C)c1 [Example 88, N-{2-[2-(4-hydroxy-3,4,5,6-tetrahydro-2H-[4,4′]bipyridinyl-1-yl)-2-oxo-ethoxy]-ethyl}-4-methoxy-2,6,N-trimethyl-phenylsulfonamide] | 102% | 103% | – |
| COc1cc(C)c(S(=O)(=O)N2CCCC2COCC(=O)N2CCC(O)(c3cccnc3)CC2)c(C)c1 (stereo not drawn) [Example 89, 1-(4′-hydroxy-3′,4′,5′,6′-tetrahydro-2′H-[3,4′]bipyridinyl-1′-yl)-2-[1-(4-methoxy-2,6-dimethyl-phenylsulfonyl)-pyrrolidin-2-ylmethoxy]-ethanone; hydrochloride] | – | – | B1R antagonism, human [10 μM] % inhibition ([1]; hydrochloride): 104.46%; B1R antagonism, rat [10 μM] % inhibition ([2]; hydrochloride): 100.44% |
| O=C(COCC1Cc2ccccc2CN1S(=O)(=O)c1ccc(Cl)c(Cl)c1)N1CCC(O)(c2cccnc2)CC1 (stereo not drawn) [Example 91, 2-[2-(3,4-dichloro-phenylsulfonyl)-1,2,3,4-tetrahydro-isoquinolin-3-ylmethoxy]-1-(4′-hydroxy-3′,4′,5′,6′-tetrahydro-2′H-[3,4′]bipyridinyl-1′-yl)-ethanone] | 93.7% | 93.7% | – |
| O=C(COCC1Cc2ccccc2CN1S(=O)(=O)c1ccc(Cl)cc1Cl)N1CCC(O)(c2cccnc2)CC1 (stereo not drawn) [Example 92, 2-[2-(2,4-dichloro-phenylsulfonyl)-1,2,3,4-tetrahydro-isoquinolin-3-ylmethoxy]-1-(4′-hydroxy-3′,4′,5′,6′-tetrahydro-2′H-[3,4′]bipyridinyl-1′-yl)-ethanone] | – | – | B1R antagonism, human [10 μM] % inhibition [1]: 101.02%; B1R antagonism, rat [10 μM] % inhibition [2]: 97.98% |
| CN(CCOCC(=O)N1CCC(O)(c2ccc(Cl)cc2)CC1)S(=O)(=O)c1cc(F)cc(F)c1 [Example 93, N-(2-(2-(4-(4-chlorophenyl)-4-hydroxypiperidin-1-yl)-2-oxoethoxy)ethyl)-3,5-difluoro-N-methylphenylsulfonamide] | -12.1% | 6.49% | – |
| Cc1cc(C)c(S(=O)(=O)N2CCCCC2COCC(=O)N2CCC(O)(c3ccccn3)CC2)c(C)c1 (stereo not drawn) [Example 94, 1-(4′-hydroxy-3′,4′,5′,6′-tetrahydro-2′H-[2,4′]bipyridinyl-1′-yl)-2-[1-(2,4,6-trimethyl-phenylsulfonyl)-piperidin-2-ylmethoxy]-ethanone] | 104% | 103% | – |

The next lines start with results.

| inhibition at 10 µM [1] | inhibition at 10 µM [2] | SMILES | other results |
| --- | --- | --- | --- |
| -7.27% | 14.4% | O=C(COCC1Cc2ccccc2CN1S(=O)(=O)c1ccccc1)N1CCC(O)(c2ccccn2)CC1 (stereo not drawn) [Example 73, 2-(2-phenylsulfonyl-1,2,3,4-tetrahydro-isoquinolin-3-ylmethoxy)-1-(4′-hydroxy-3′,4′,5′,6′-tetrahydro-2′H-[2,4′]bipyridinyl-1′-yl)-ethanone] | – |
| -7.3% | -3.17% | COc1ccc(S(=O)(=O)N2CCC(OCC(=O)N3CCC(O)(c4ccccn4)CC3)(c3ccccc3)CC2)cc1 [Example 74, 1-(4′-hydroxy-3′,4′,5′,6′-tetrahydro-2′H-[2,4′]bipyridinyl-1′-yl)-2-[1-(4-methoxy-phenylsulfonyl)-4-phenyl-piperidin-4-yloxy]-ethanone] | – |
| 11% | 19.2% | O=C(COCC1Cc2ccccc2CN1S(=O)(=O)c1ccc(F)cc1)N1CCC(O)(Cc2ccccc2)CC1 (stereo not drawn) [Example 75, 1-(4-benzyl-4-hydroxy-piperidin-1-yl)-2-[2-(4-fluoro-phenylsulfonyl)-1,2,3,4-tetrahydro-isoquinolin-3-ylmethoxy]-ethanone] | – |
| 13.7% | 12.7% | O=C(COCC1Cc2ccccc2CN1S(=O)(=O)c1ccc(Cl)c(Cl)c1)N1CCC(O)(c2ccccc2)CC1 (stereo not drawn) [Example 78, 2-((2-(3,4-dichlorophenylsulfonyl)-1,2,3,4-tetrahydroisoquinolin-3-yl)methoxy)-1-(4-hydroxy-4-phenylpiperidin-1-yl)ethanone] | – |
| 62.3% | 82.5% | O=C(COCC1Cc2ccccc2CN1S(=O)(=O)c1ccc(Cl)cc1Cl)N1CCC(O)(c2ccccc2)CC1 (stereo not drawn) [Example 80, 2-((2-(2,4-dichlorophenylsulfonyl)-1,2,3,4-tetrahydroisoquinolin-3-yl)methoxy)-1-(4-hydroxy-4-phenylpiperidin-1-yl)ethanone] | – |
| 9.32% | 17.9% | COc1ccc(S(=O)(=O)N2CCC(OCC(=O)N3CCC(O)(Cc4ccccc4)CC3)(c3ccccc3)CC2)cc1 [Example 82, 1-(4-benzyl-4-hydroxy-piperidin-1-yl)-2-[1-(4-methoxy-phenylsulfonyl)-4-phenyl-piperidin-4-yloxy]-ethanone] | – |
| 13.8% | 31.1% | O=C(COCC1Cc2ccccc2CN1S(=O)(=O)c1ccccc1)N1CCC(O)(c2cccnc2)CC1 (stereo not drawn) [Example 90, 2-(2-phenylsulfonyl-1,2,3,4-tetrahydro-isoquinolin-3-ylmethoxy)-1-(4′-hydroxy-3′,4′,5′,6′-tetrahydro-2′H-[3,4′]bipyridinyl-1′-yl)-ethanone] | – |
| 8.92% | -0.33% | O=C(COC1CCCCC1N(Cc1ccccc1)S(=O)(=O)c1ccc(Cl)c(Cl)c1)N1CCC(O)(c2ccccn2)CC1 (stereo not drawn) [Example 95, N-benzyl-3,4-dichloro-N-{2-[2-(4′-hydroxy-3′,4′,5′,6′-tetrahydro-2′H-[2,4′]bipyridinyl-1′-yl)-2-oxo-ethoxy]-cyclohexyl}-phenylsulfonamide] | – |
